Experiments:
[1] = percutaneous [^3H]-4-hydroxy tamoxifen delivery in breast cancer patients (Example 1)
Experimental: The patients received [^3H]-labeled drug applied directly on the affected breasts at specified intervals ranging from 12 hours to 7 days before surgery to excise diseased tissue. Breast tissue from three regions: the tumor, tissue immediately surrounding the tumor, and normal tissue, was excised and immediately frozen in liquid nitrogen. Additionally, plasma and urine samples were obtained at scheduled intervals and frozen until analysis.

rat liver = settings: cited from earlier work
[2] = tested on: p53(−) normal human mammary epithelial cells; settings: cited from earlier work
benign breast disease = settings: cited from earlier work
[3] = Group 1: PO tamoxifen 20 mg/day (10 mg b.i.d.), 3-4 weeks; cited from earlier work
[4] = Group 2 (0.5 mg/day gel): seventh day of treatment; Group 1 (oral tamoxifen): fifth day; cited from earlier work
estrone sulphatase = target: T1, estrone sulphatase (Homo sapiens, UniProt P08842); settings: mammary cancer cell lines; cited from earlier work
T1 construct: estrone sulphatase activity in mammary cancer cell lines; endogenous in cells
T1 sequence (P08842 22-583): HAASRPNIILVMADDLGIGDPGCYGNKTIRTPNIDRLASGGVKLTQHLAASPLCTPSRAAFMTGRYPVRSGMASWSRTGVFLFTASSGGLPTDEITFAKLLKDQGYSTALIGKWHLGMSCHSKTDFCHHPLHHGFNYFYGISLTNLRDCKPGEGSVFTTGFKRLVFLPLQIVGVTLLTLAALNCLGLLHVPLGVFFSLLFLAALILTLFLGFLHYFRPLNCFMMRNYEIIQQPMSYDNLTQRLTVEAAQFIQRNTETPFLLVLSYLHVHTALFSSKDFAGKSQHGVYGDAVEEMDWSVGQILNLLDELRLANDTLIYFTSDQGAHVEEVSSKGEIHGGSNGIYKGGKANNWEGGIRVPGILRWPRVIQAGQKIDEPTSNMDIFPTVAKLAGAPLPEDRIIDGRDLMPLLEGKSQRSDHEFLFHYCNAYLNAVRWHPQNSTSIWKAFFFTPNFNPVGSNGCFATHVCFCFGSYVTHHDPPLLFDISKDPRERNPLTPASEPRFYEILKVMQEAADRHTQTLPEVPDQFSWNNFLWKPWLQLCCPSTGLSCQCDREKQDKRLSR

CC/C(=C(\c1ccccc1)c1ccc(OCCN(C)C)cc1)c1ccccc1 [[^3H]-tamoxifen]
time of plateau of radioactivity in blood ([1]; percutaneous application): 2 days

CC/C(=C(\c1ccccc1)c1ccc(OCCN(C)C)cc1)c1ccccc1 [tamoxifen]
retention in the breast ([1]; percutaneous application to the breast): shorter and far weaker | rat liver carcinogenicity (rat liver): potent rat liver carcinogen | initiation of apoptosis [2]: initiates apoptosis | decrease of risk, adenosis (benign breast disease; in vivo): 41% | decrease of risk, cyst (benign breast disease; in vivo): 34% | decrease of risk, duct ectasia (benign breast disease; in vivo): 28% | decrease of risk, fibrocystic disease (benign breast disease; in vivo): 33% | decrease of risk, hyperplasia (benign breast disease; in vivo): 40% | decrease of risk, metaplasia (benign breast disease; in vivo): 49% | reduction of the risk of developing benign breast disease, overall (benign breast disease; in vivo): 28% | reduction of the need for breast biopsies (benign breast disease; women under 50): 41% | Normal Tissue concentration of 4-hydroxy tamoxifen, Mean ± SD [3]: 10215 ± 2151 pg/g | Plasma concentration of 4-hydroxy tamoxifen, Day Pre-Surgery, Mean ± SD [3]: 2.326 ± 0.585 ng/mL | Plasma concentration of 4-hydroxy tamoxifen, Day of Surgery, Mean ± SD [3]: 2.317 ± 1.098 ng/mL | Tumor concentration of 4-hydroxy tamoxifen, Mean ± SD [3]: 12453 ± 3751 pg/g | side effects reported by one person of the group [4]: hot flashes and mild vaginitis | inhibitory effect on estrone sulphatase activity (estrone sulphatase): little or no effect
